Assays:
[1] = target: Sphingosine 1-phosphate receptor 2 (Homo sapiens, UniProt O95136); experiment: (§1) In Vitro Binding Assay: I. Master Stock SolutionUnless specified otherwise, the sample compounds were diluted in 100% anhydrous DMSO including all dilutions. The compounds were tested as the citrate salt (1 equivalent per molecule). If the sample compound is provided in a different solvent all master stock dilutions are performed in the specified solvent. All control wells contained identical solvent final concentrations as the sample compound wells.II. Compound Plate AssayThe sample compounds were transferred from a master stock solution into a daughter plate that was used in the assay. Each sample compound was diluted into an assay buffer (1×HBSS with 20 mM HEPES, 2.5 mM Probenecid, and 0.4% Free Fatty Acid BSA) at an appropriate concentration to obtain final specified concentrations.III. Antagonist Assay FormatUsing the EC80 values that were determined real-time, stimulated all pre-incubated sample compounds and reference antagonists (if applicable) were compared with the EC80 values of reference agonist. These were read for 180 seconds using the […] (This assay added reference agonist to respective wells-then fluorescences measurements were collected to calculate IC50 values).
Sequence of Sphingosine 1-phosphate receptor 2 (O95136 whole entry): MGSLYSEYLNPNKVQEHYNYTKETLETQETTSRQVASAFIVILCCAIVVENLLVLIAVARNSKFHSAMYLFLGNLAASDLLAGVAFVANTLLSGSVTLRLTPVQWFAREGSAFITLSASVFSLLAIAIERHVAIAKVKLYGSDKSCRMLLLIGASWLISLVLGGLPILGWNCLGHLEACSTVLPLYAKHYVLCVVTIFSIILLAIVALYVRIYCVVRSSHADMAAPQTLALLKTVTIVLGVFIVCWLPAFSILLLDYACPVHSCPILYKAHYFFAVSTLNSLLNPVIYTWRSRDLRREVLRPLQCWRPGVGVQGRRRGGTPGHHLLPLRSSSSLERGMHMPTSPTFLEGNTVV

[2] = target: Sphingosine 1-phosphate receptor 5 (Homo sapiens, UniProt Q9H228); experiment: as §1
Sequence of Sphingosine 1-phosphate receptor 5 (Q9H228 whole entry): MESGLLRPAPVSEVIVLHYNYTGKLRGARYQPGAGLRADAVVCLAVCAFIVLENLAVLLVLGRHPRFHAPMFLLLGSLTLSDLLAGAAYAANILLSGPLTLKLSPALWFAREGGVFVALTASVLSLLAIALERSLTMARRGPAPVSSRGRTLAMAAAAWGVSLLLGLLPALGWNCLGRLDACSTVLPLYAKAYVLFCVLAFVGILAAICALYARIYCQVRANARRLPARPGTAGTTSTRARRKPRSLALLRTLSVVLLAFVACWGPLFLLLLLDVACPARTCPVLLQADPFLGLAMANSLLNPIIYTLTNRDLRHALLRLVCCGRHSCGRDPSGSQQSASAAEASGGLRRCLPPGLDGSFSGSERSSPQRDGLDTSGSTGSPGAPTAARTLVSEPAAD

IC50 [1] [nM]	IC50 [2] [nM]	Compound
19	12	Cc1nn(C)c2nc(N(CCCO)NC(=O)Nc3cc(Cl)nc(Cl)c3)cc(C(C)C)c12
52	110	C=CCN(NC(=O)Nc1cc(Cl)nc(Cl)c1)c1cc(C(C)C)c2c(C)nn(C)c2n1
